Tests used:
[1] = system: human parathyroid adenoma cells; assay: PTH secretion from freshly dispersed human parathyroid adenoma cells (intact PTH ELISA); format: cell-based; conditions: 30 min
Method: Dispersed primary human parathyroid cells were rested for 1 hr at 37° C. in keratinocyte-SFM media (Thermo Fisher Scientific#37010-022) supplemented with the manufacturer's provided media supplements, antibiotics and 1.25 mM Ca^2+. Cells were then centrifuged and transferred to KSFM media with various concentrations of Ca^2+, P-15 peptide, forskolin and volumetric equivalent of DMSO for 30 min at 37° C. Supernatants were collected by centrifugation at 10,000 rpm, 5 min at 4° C. and were stored in −80 for determination of intact PTH.
Human intact PTH (1-84) in cell supernatants was measured in a colorimetric ELISA assay (Immutopics International #60-3000).

[2] = system: tumor cells from tertiary hyperparathyroidism; assay: PTH secretion from isolated tumor cells of tertiary hyperparathyroidism glands; format: cell-based, human
Method: (§1) FIG. 14A. Tertiary hyperparathyroidism following kidney transplantation. […] Isolated tumor cells from tertiary hyperparathyroidism gland A were stimulated with calcium (CaSR agonist) and P-15 peptide (GPR64 agonist) in vitro and PTH secretion was measured.
as §1, with “14B.” for “14A.”, “C” for “A”, “measured. Cells express very high levels of GPR64 and are unresponsive to calcium-mediated suppression of PTH secretion.” for “measured.”

HEK-CaSR cells = assay: cAMP accumulation assay in HEK-CaSR cells; format: cell-based, human; conditions: activation of CaSR by 3 mM Ca^2+, forskolin-stimulated cells
[3] = system: P-15-induced CRE induction; assay: P-15-induced CRE induction in GPR64-transfected HEK cells after preincubation with kinase inhibitors; format: cell-based, human; conditions: 1 hr preincubation (H-89 20 μM, U0126 10 μM) before 100 μM P-15 for 5 hrs
Method: FIG. 7. HEK cells were transfected with pCRE-Luc and GPR64 and were preincubated with DMSO (vehicle), H-89 (PKA inhibitor, 20 μM) or U0126 (MEK inhibitor, 10 μM) for 1 hr before stimulation with either DMSO or 100 μM P-15 peptide for 5 hrs. Luciferase assay data are normalized to vehicle-preincubated, DMSO stimulated cells. Data are mean±SD from 3 independent experiments conducted in triplicates. *: P<0.05, **: P<0.01.
HEK cells were seeded in white opaque 96-well plates (30,000 cell/well) and were transfected with pCRE-Luc (100 ng/well) along with different doses of empty or GPR64-expressing plasmids. Cell were either left untreated or stimulated with different concentrations of P-15 peptide for 5 hrs at 37° C. Luminescence was measured in a FLEXStationIII plate reader (Molecular Devices).

GPR64 [4] = biological target: T1, GPR64 (Homo sapiens, UniProt Q8IZP9); assay: cAMP accumulation assay in HEK-CaSR cells transfected with GPR64; format: cell-based; set-up: The human GPR64 variant 1 (full length with 1017 amino acids); expressed in transfected cells; host or cells: HEK-CaSR cells (AD-293 clone stably expressing FLAG-tagged human CaSR), transient transfection with pcDNA3.1-GPR64; conditions: 100 μM P-15, 30 min, 1.25 or 3 mM Ca^2+
GPR64ΔNTF [5] = biological target: T2, GPR64ΔNTF (Homo sapiens, UniProt Q8IZP9); assay: cAMP accumulation assay in HEK-CaSR cells transfected with GPR64ΔNTF; format: cell-based; conditions: concomitant 3 mM Ca^2+ and 100 μM P-15
T2 construct: The human GPR64 variant 1 (full length with 1017 amino acids); expressed in transfected cells; host or cells: AD-293 (HEK) cells, transient transfection with pcDNA3.1-GPR64ΔNTF

GPR64ΔNTF [6] = biological target: T2, GPR64ΔNTF; assay: CRE reporter gene assay (pCRE-Luc) in HEK cells transfected with GPR64ΔNTF; format: cell-based; conditions: increasing concentrations of P-15, 5 hrs
Method: (§2) FIG. 2. (A) HEK cells were transfected with pCRE-Luc in combination with 200 ng of pcDNA3.1, GPR64 or GPR64ΔNTF plasmids and were stimulated with increasing concentrations of 15 amino acid-long human GPR64 peptide (P-15) for 5 hrs. Luciferase activity (CRE induction) was measured and data were normalized to the values of cells transfected with pcDNA3.1. Data are mean±SD from 3-4 independent experiments conducted in triplicates. (B) Forty eight hrs post-transfection with pcDNA3.1, GPR64 or GPR64ΔNTF plasmids, HEK cells were stimulated with DMSO (vehicle) or 100 μM P-15 peptide for 30 min and cAMP accumulation was measured in an ELISA assay at 405 nm. […] (C) Freshly isolated human adenoma parathyroid cells were stimulated with increasing concentrations of Ca^2+ and P-15 or DMSO (vehicle) for 30 min and the concentration of secreted intact PTH was measured by ELISA. […] (D) Freshly isolated human adenoma parathyroid cells were stimulated with increasing concentrations of Ca^2+ and forskolin (FSK, 3 and 5 μM) or DMSO (vehicle) for 30 min and the concentration of secreted intact PTH was measured by ELISA. […]
(§3) HEK cells were seeded in white opaque 96-well plates (30,000 cell/well) and were transfected with pCRE-Luc (100 ng/well) along with different doses of empty or GPR64-expressing plasmids. […] Luminescence was measured in a FLEXStationIII plate reader (Molecular Devices).

GPR64 [7] = biological target: T1, GPR64; assay: CRE reporter gene assay (pCRE-Luc) in HEK cells transfected with GPR64; format: cell-based; set-up: The human GPR64 variant 1 (full length with 1017 amino acids); expressed in transfected cells; host or cells: AD-293 (HEK) cells, transient transfection with pcDNA3.1-GPR64; conditions: increasing concentrations of P-15, 5 hrs
Method: as §2, §3

GPR64 [8] = biological target: T1, GPR64; assay: cAMP accumulation assay (ELISA) in HEK cells transfected with GPR64; format: cell-based; set-up: The human GPR64 variant 1 (full length with 1017 amino acids); expressed in transfected cells; host or cells: AD-293 (HEK) cells, transient transfection with pcDNA3.1-GPR64; conditions: 100 μM P-15, 30 min, 48 hrs post-transfection
Method: FIG. 2. (A) HEK cells were transfected with pCRE-Luc in combination with 200 ng of pcDNA3.1, GPR64 or GPR64ΔNTF plasmids and were stimulated with increasing concentrations of 15 amino acid-long human GPR64 peptide (P-15) for 5 hrs. Luciferase activity (CRE induction) was measured and data were normalized to the values of cells transfected with pcDNA3.1. Data are mean±SD from 3-4 independent experiments conducted in triplicates. (B) Forty eight hrs post-transfection with pcDNA3.1, GPR64 or GPR64ΔNTF plasmids, HEK cells were stimulated with DMSO (vehicle) or 100 μM P-15 peptide for 30 min and cAMP accumulation was measured in an ELISA assay at 405 nm. Data were corrected to the protein concentration in samples. Data are mean±SD from 3 independent experiments conducted in triplicates. *: P<0.05, ****: P<0.0001. (C) Freshly isolated human adenoma parathyroid cells were stimulated with increasing concentrations of Ca^2+ and P-15 or DMSO (vehicle) for 30 min and the concentration of secreted intact PTH was measured by ELISA. Data were normalized to the PTH secretion in vehicle-treated cells cultured in 0.5 mM Ca^2+. […] (D) Freshly isolated human adenoma parathyroid cells were stimulated with increasing concentrations of Ca^2+ and forskolin (FSK, 3 and 5 μM) or DMSO (vehicle) for 30 min and the concentration of secreted intact PTH was measured by ELISA. […]

T1 sequence (Q8IZP9 38-1017): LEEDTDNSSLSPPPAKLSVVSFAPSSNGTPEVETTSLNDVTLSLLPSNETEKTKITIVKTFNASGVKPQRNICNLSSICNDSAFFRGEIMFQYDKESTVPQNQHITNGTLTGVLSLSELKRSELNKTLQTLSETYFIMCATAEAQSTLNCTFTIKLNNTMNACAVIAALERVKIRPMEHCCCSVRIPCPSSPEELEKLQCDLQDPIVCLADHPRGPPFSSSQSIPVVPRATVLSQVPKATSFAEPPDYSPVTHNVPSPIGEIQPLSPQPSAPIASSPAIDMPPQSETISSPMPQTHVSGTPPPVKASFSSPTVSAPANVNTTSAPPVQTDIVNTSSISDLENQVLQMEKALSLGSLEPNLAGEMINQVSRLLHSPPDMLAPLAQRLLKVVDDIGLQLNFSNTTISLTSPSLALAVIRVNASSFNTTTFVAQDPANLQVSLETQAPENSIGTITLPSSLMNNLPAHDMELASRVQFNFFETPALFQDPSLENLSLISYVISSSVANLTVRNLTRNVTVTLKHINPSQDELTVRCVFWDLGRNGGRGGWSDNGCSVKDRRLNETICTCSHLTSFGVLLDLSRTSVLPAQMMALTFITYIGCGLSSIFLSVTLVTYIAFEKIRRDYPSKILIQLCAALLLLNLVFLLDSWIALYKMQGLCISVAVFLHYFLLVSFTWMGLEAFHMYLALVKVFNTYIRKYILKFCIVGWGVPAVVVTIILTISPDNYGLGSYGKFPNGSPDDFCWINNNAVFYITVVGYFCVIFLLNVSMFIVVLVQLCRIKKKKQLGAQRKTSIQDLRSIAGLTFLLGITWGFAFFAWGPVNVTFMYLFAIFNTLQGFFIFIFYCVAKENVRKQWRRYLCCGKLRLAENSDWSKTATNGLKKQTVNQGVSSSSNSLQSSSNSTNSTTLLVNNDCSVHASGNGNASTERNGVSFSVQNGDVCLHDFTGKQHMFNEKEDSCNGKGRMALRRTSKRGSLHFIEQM
T2 sequence (Q8IZP9 607-1017 limits assumed, stated change not applied): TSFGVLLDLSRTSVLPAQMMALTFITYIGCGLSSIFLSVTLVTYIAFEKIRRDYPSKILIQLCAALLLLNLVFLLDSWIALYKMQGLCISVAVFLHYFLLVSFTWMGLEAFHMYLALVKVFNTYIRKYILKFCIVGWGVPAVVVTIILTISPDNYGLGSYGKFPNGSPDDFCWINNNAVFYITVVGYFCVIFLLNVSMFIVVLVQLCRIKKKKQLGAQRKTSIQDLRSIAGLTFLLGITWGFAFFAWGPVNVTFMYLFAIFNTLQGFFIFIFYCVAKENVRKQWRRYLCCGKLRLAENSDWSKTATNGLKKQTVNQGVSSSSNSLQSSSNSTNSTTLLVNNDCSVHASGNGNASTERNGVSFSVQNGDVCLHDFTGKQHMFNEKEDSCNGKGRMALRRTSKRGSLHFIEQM

Molecule: [Ca+2].[Cl-].[Cl-] [Calcium, Calcium chloride, reference compound]
- PTH secretion ([1]; increasing concentrations of Ca^2+): suppressed PTH secretion in a dose-dependent manner
- calcium-mediated suppression of PTH secretion ([2]; tertiary hyperparathyroidism gland C, cells express very high levels of GPR64): unresponsive
- cAMP level (HEK-CaSR cells): suppressed cAMP levels significantly

Molecule: O=S(=O)(NCCNC/C=C/c1ccc(Br)cc1)c1cccc2cnccc12 [H-89]
- effect on P-15-induced CRE induction [3]: blunted the P-15-induced CRE induction

Molecule: N#CC(=C(/N)Sc1ccccc1N)/C(C#N)=C(\N)Sc1ccccc1N [U0126]
- effect on P-15-induced CRE induction [3]: did not inhibit CRE induction

Molecule: TSFGVLLDLSRTSVL [P-15, GPR64 agonist]
- cAMP production (GPR64 [4]): increased cAMP production irrespective of CaSR activation with 3 mM Ca^2+
- PTH secretion ([1]; P-15 with various concentrations of Ca^2+): elevated the PTH secretion
- intracellular cAMP (GPR64ΔNTF [5]): restored the intracellular cAMP to the level of cells activated only with P-15 in normocalcemic conditions
- PTH secretion ([2]; tertiary hyperparathyroidism gland A, calcium plus P-15 in vitro): higher PTH secretion
- CRE induction (luciferase activity) (GPR64ΔNTF [6]): concentration-dependent CRE induction
- CRE induction (luciferase activity) (GPR64 [7]; GPR64-transfected HEK cells): concentration-dependent CRE induction
- CRE induction (luciferase activity) (GPR64 [7]; control cells (pcDNA3.1-transfected HEK)): absent
- cAMP production (GPR64 [8]): specifically activates GPR64 to produce cAMP
